Assay results published in publication doi:10.1101/2021.07.28.21261232v1 (medrxiv, 2021).

How the values were obtained:
[1] = in vitro; conditions: human, microsomes
[2] = target: Human Elastase; conditions: pH 8.0, room temperature, 50 mM Tris, 100 mM NaCl, Brij 35
[3] = target: Bovine Chymotrypsin (Bos taurus, UniProt P00766)
[4] = target: Human Thrombin (Homo sapiens, UniProt P00734)

Structure (SMILES)	microsomal CLint [1] [µL/min/mg]	IC50 [2] [µM]	IC50 [3] [µM]	IC50 [4] [µM]
CC(C)[C@H](NS(C)(=O)=O)C(=O)N1C[C@H]2[C@@H]([C@H]1C(=O)N[C@@H](C[C@@H]1CCNC1=O)C(=O)c1nc3ccccc3s1)C2(C)C [compound 4, (1R,2S,5S)-N-{(2S)-1-(1,3-Benzothiazol-2-yl)-1-oxo-3-[(3S)-2-oxopyrrolidin-3-yl]propan-2-yl}-6,6-dimethyl-3-[N-(methylsulfonyl)-L-valyl]-3-azabicyclo[3.1.0]hexane-2 carboxamide]	127 ± 3	–	–	–
CC(C)(C)[C@H](NC(=O)C(F)(F)F)C(=O)N1C[C@H]2[C@@H]([C@H]1C(=O)N[C@H](C#N)C[C@@H]1CCNC1=O)C2(C)C [compound 6, (1R,2S,5S)-N-{(1S)-1-Cyano-2-[(3S)-2-oxopyrrolidin-3-yl]ethyl}-6,6-dimethyl-3-[3-methyl-N-(trifluoroacetyl)-L-valyl]-3-azabicyclo[3.1.0]hexane-2-carboxamide]	–	> 100	> 100	> 100
COc1cccc2[nH]c(C(=O)N[C@@H](CC(C)C)C(=O)N[C@H](C#N)C[C@@H]3CCNC3=O)cc12 [compound 2, N-[(2S)-1-({(1S)-1-Cyano-2-[(3S)-2-oxopyrrolidin-3-yl]ethyl}amino)-4-methyl-1-oxopentan-2-yl]-4-methoxy-1H-indole-2-carboxamide]	34.4 ± 0.7	–	–	–
COc1cccc2[nH]c(C(=O)N[C@@H](CC(C)C)C(=O)N[C@@H](C[C@@H]3CCNC3=O)C(=O)CO)cc12 [compound 1, PF-00835231]	7.47 ± 0.88	–	–	–
